biological target: CDK2 (human) (UniProt P24941); experiment: Enzyme Assay

SMILES	IC50
CCc1cccc(C(=O)c2sc(Nc3ccc(N4CCC(N5CCNCC5)CC4)cc3)nc2N)c1	989 nM
COc1cccc(C(=O)c2sc(Nc3ccc(N4CCC(N5CCCC(O)C5)CC4)cc3)nc2N)c1 (configuration not stated)	970 nM
Nc1nc(Nc2ccc(N3CCC(N4CCCC4)CC3)cc2)sc1C(=O)c1ccc2c(c1)OCCO2	3490 nM
Cc1cccc(C(=O)c2sc(Nc3ccc(N4CCC(N5CCCCC5)CC4)cc3)nc2N)c1	2920 nM

biological target: CDK2 (human) (UniProt P24941); experiment: Enzyme Assay; remark: another data set of the same source

SMILES	IC50
Cc1cccc(C(=O)c2sc(Nc3ccc(N4CCC(N(C)C)CC4)cc3)nc2N)c1	3520 nM
Cc1cccc(C(=O)c2sc(Nc3ccc(N4CCC(N5CCCC5)CC4)cc3)nc2N)c1	2620 nM
Cc1cccc(C(=O)c2sc(Nc3ccc(N4CCC(N5CCCCC5)CC4)cc3)nc2N)c1	2920 nM
